Several values for one entry are separate records, joined by “and”; a condition that tells them apart may be missing. Equal entries are not always repeated.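 Cultured in 96-well plates, cells were exposed to test compound for 48 hours across five concentrations. GI50 = concentration required for 50% inhibition of growth. At the TGI there is no net growth.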

This is an account of results in PubChem BioAssay (NCI).

Common to all, as to test: NCI anticancer screen, dose series, 48 h
The subject of experiment [1] is OVCAR-5 ovarian.
Experiment [2] relates to HT29 colon.
Experiment [3] deals with LOX IMVI melanoma.
Experiment [4] concerns CCRF-CEM leukemia.
Experiment [5] relates to RXF 393 renal.
In experiment [6] the test system is SK-OV-3 ovarian.
Experiment [7] deals with RPMI-8226 leukemia.
In experiment [8] the test system is HCT-116 colon.
Experiment [9] relates to M14 melanoma.
In experiment [10] the test system is KM12 colon.

In the case of `C=C(C)[C@@H]1CC[C@]2(COC3CCCCO3)CC[C@]3(C)[C@H](CC[C@@H]4[C@@]5(C)C=C(C=O)C(=O)C(C)(C)[C@@H]5CC[C@]43C)[C@@H]12` (stereo partly specified), the GI50 is 1.79 µM in experiment [1]; 1.7 µM in experiment [2]; 1.36 µM in [3]; 0.386 µM in experiment [4]; 1.24 µM in experiment [5]; 1.84 µM in experiment [6]. Also, the GI50 in experiment [7] is 1.59 µM; in experiment [8], 1.31 µM; in [9], 1.34 µM; in experiment [10], 1.37 µM. For the same molecule, the TGI in experiment [1] is 4.21 µM; in [2], 3.49 µM; in [3], 2.73 µM; in experiment [4], 2.57 µM; in experiment [5] it was 2.73 µM; in [6] it was 3.32 µM. Besides, the TGI in experiment [7] was 8.3 µM; in experiment [8], 2.59 µM; in experiment [9], 3.01 µM; in experiment [10], 3.5 µM.
As for `O=C(O)c1ccc2c(c1)nc(Nc1cccc(Cl)c1)c1ccncc12`, the GI50 in experiment [1] was 3.2 µM and 4.53 µM; in experiment [2], 5.48 µM and 6.26 µM; in [3], 2.04 µM and 2.7 µM; in experiment [4] it was 2.25 µM and 1.85 µM; in [5], 3.23 µM and 4.17 µM; in [6], 2.98 µM and 2.42 µM. Also, the GI50 in [7] was 2.68 µM and 2.5 µM; in [8] it was 2.39 µM and 2.82 µM; in experiment [9] it was 1.52 µM and 2.2 µM; in experiment [10], 3.43 µM and 4.43 µM. For the same molecule, the TGI was 38.7 µM and > 10 µM in experiment [1]; 33.3 µM and > 10 µM in [2]; 10.7 µM and > 10 µM in experiment [3]; 8.55 µM and 7.01 µM in [4]; 13 µM and > 10 µM in [5]; 11.6 µM and 7.52 µM in [6]. Besides, the TGI in experiment [7] was 8.86 µM and 9.44 µM; in experiment [8], 8.69 µM and > 10 µM; in experiment [9], 5.39 µM and 9.68 µM; in experiment [10] it was 18.1 µM and > 10 µM.
Take `CN(C[C@@H]1COCCO1)S(=O)(=O)Nc1ccc2ccc3ncc(-c4cnn(C)c4)cc3c(=O)c2c1`: the GI50 in experiment [1] is > 81.2 µM; in [2], 19.7 µM; in experiment [3], 3.37 µM; in experiment [4], 5.65 µM; in experiment [5] it was 1.1 µM; in [6], 3.04 µM. Also, the GI50 in experiment [7] is 3.88 µM; in experiment [8], 3.87 µM; in [9], 3.89 µM; in experiment [10], 0.369 µM. Moreover, the TGI was > 100 µM in [1]; > 100 µM in experiment [2]; > 100 µM in experiment [3]; > 100 µM in experiment [4]; 6.71 µM in experiment [5]; > 100 µM in experiment [6]. For the same molecule, the TGI in experiment [7], in experiment [8], in experiment [9] and in [10] was > 100 µM each time.
In the case of `COc1ccc(-c2ccc(/C=N/n3c(C)nn(CN4CCN(C)CC4)c3=S)o2)c([N+](=O)[O-])c1`, the GI50 in experiment [1] was 62.6 µM; in [2] it was 28 µM; in experiment [4], 22 µM; in [5], 30.2 µM; in experiment [6], 45 µM; in [7] it was 20.6 µM. Further, the GI50 in [8] is 21.7 µM; in experiment [9] it was 42.4 µM; in experiment [10], 17.7 µM. Besides, the TGI in experiment [1] was > 100 µM; in experiment [2], > 100 µM; in [4] it was 61.4 µM; in experiment [5], > 100 µM; in experiment [6] it was > 100 µM; in experiment [7], 64.6 µM. Also, the TGI was 57.8 µM in experiment [8], > 100 µM in experiment [9] and 42.9 µM in experiment [10].
With `NC(=O)/C=C/NC(=O)/C=N\O`, the TGI in [1], in experiment [2], in experiment [3], in [4], in experiment [5] and in experiment [6] was > 100 µM in each case. Further, the TGI in experiment [7], in experiment [8], in [9] and in experiment [10] was > 100 µM in each case.
Take `CCC(C(=O)[O-])C(=O)[O-].CCC(C(=O)[O-])C(=O)[O-].N.N.NCCCCCCN.[Pt+4].[Pt+4]`: the GI50 in [1] is 10.7 µM; in experiment [2] it was 9.01 µM; in [3] it was 10.1 µM; in experiment [4], 1.1 µM; in experiment [5] it was 4.49 µM; in [6], 10.3 µM. The GI50 in experiment [7] was 3.66 µM; in experiment [8] it was 5.59 µM; in experiment [9] it was 6.68 µM; in experiment [10] it was 8.83 µM. The TGI is 19.7 µM in [1]; 19.4 µM in [2]; 20.6 µM in experiment [3]; 2.87 µM in experiment [4]; 10.1 µM in experiment [5]; 18.3 µM in [6]. Also, the TGI in experiment [7] amounted to 11.9 µM; in [8] it was 14 µM; in experiment [9] it was 13.1 µM; in [10], 16.8 µM.
As to `C[C@H]1C(Oc2ccc(O)cc2)OC2OC3(C)CCC4[C@H](C)CCC1C24OO3` (stereo partly specified), the GI50 was 10.4 µM in [1]; 8.86 µM in experiment [2]; 11.5 µM in experiment [3]; 8.52 µM in [4]; 19.1 µM in [5]; 21.1 µM in experiment [6]. Moreover, the GI50 in [8] was 8.56 µM; in [9] it was 16.1 µM; in experiment [10] it was 11.4 µM. Besides, the TGI is 25.9 µM in [1]; 27.4 µM in [2]; 30.6 µM in [3]; > 100 µM in experiment [4]; 41.3 µM in experiment [5]; 47.8 µM in experiment [6]. The TGI in experiment [7] was > 63.1 µM; in experiment [8], 25 µM; in experiment [9], 34.3 µM; in experiment [10] it was > 82.1 µM.
`CN(C)c1ccc(/C=N\N2C(=O)c3ccccc3C2=O)cc1`: the TGI in experiment [1], in experiment [2], in [3], in experiment [4], in [5] and in experiment [7] was > 100 µM each time. Also, the TGI in [8], in experiment [9] and in experiment [10] was > 100 µM each time.
